The assay deals with T1, USP7 (Homo sapiens, UniProt Q93009).
T1 construct: full length human USP7 protein; made in house
Put plainly: USP7, Ub-PLA2 assay. Format: biochemical. The conditions noted are these: Ub-PLA2 / NBD C6-HPC fluorescence, 30 minute preincubation; read-out: EC50 for inhibition of USP7. The procedure:
The purpose of this assay is to measure the inhibition of USP7 by various compounds of the invention synthesized according to the above-described methods. […] The vehicle control was 100% (v/v) DMSO. 1.6 μL aliquots of the diluted test compound and controls were dispensed into individual wells in a black walled 96 well plate. […] The data were normalized within a plate relative to the control wells using the equation % inhibition=(100−(((RFUcompound−RFUmean NEM) / (RFUmean DMSO−RFUmean NEM))×100)).

Structures are written as SMILES. Bounds are passed on as bounds.

T1 sequence (Q93009 whole entry): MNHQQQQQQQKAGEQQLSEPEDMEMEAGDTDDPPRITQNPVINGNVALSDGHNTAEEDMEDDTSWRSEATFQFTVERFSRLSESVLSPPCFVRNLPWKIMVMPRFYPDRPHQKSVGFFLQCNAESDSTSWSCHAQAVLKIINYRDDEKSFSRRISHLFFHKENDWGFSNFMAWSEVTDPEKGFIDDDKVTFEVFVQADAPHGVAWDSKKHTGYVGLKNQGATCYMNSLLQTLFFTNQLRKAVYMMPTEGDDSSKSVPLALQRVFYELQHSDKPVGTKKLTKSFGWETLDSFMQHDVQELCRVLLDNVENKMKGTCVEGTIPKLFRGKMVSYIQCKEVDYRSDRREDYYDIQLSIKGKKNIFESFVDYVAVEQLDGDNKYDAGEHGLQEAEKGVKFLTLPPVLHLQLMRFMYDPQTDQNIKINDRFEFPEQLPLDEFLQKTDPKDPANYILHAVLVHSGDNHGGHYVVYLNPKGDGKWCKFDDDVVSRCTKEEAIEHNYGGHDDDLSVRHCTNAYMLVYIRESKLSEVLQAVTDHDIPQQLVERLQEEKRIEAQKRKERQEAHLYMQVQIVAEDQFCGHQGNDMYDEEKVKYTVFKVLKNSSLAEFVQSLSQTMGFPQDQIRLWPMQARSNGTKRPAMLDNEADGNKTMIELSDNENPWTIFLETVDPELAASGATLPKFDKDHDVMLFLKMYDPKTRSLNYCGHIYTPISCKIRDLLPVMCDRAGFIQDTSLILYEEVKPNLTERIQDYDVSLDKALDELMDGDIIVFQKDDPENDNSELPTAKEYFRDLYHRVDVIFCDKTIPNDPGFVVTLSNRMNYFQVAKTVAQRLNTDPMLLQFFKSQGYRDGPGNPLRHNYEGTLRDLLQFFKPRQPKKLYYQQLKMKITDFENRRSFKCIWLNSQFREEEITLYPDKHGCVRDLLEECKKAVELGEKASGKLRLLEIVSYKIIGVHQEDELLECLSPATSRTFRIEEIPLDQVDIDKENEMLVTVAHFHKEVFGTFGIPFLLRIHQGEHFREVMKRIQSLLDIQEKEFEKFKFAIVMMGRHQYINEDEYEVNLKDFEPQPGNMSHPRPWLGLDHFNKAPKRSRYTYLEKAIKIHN

Take `COCCCNC(=O)c1cc([N+](=O)[O-])c(Sc2c(Cl)cncc2Cl)s1` [Example 119, 5-((3,5-dichloropyridin-4-yl)thio)-N-(3-methoxypropyl)-4-nitrothiophene-2-carboxamide]: the EC50 is no more than 1000 nM.

With `O=C(Nc1ccc2c(c1)CCC2)c1cc([N+](=O)[O-])c(Sc2c(Cl)cncc2Cl)s1` [Example 112], the EC50 is no more than 1000 nM.

As for `O=C(NC12CC3CC(CC(C3)C1)C2)c1cc([N+](=O)[O-])c(Sc2c(Cl)cncc2Cl)s1` [Example 76, N-((3s,5s,7s)-adamantan-1-yl)-5-((3,5-dichloropyridin-4-yl)thio)-4-nitrothiophene-2-carboxamide], the EC50 was greater than 10000 nM.

With `CC1(C)CC(NC(=O)c2cc([N+](=O)[O-])c(Sc3c(Cl)cncc3Cl)s2)CC(C)(C)N1` [Example 178, 5-((3,5-dichloropyridin-4-yl)thio)-4-nitro-N-(2,2,6,6-tetramethylpiperidin-4-yl)thiophene-2-carboxamide], the EC50 is no more than 1000 nM.

Regarding `CC(=O)c1cc([N+](=O)[O-])c(Sc2ccc(Br)cc2)s1` [Example 12, 1-[5-(4-Bromophenylsulfanyl)-4-nitro-2-thienyl]ethanone], the EC50 was 1000 to 10000 nM.

As for `CN1CCN(CCNC(=O)c2cc([N+](=O)[O-])c(Sc3c(Cl)cncc3Cl)s2)CC1` [Example 64, 5-((3,5-dichloropyridin-4-yl)thio)-N-(2-(4-methylpiperazin-1-yl)ethyl)-4-nitrothiophene-2-carboxamide], the EC50 is 1000 to 10000 nM.

As for `O=C(NC1CCN(C2CC2)CC1)c1cc([N+](=O)[O-])c(Sc2c(Cl)cncc2Cl)s1` [Example 231, N-(1-cyclopropylpiperidin-4-yl)-5-((3,5-dichloropyridin-4-yl)thio)-4-nitrothiophene-2-carboxamide], the EC50 is 1000 to 10000 nM.

Consider `CN(C)c1ccc(CNC(=O)c2cc([N+](=O)[O-])c(Sc3c(Cl)cncc3Cl)s2)cc1` [Example 121, 5-((3,5-dichloropyridin-4-yl)thio)-N-(4-(dimethylamino)benzyl)-4-nitrothiophene-2-carboxamide], for which the EC50 is no more than 1000 nM.

As for `CN(C)CCC(NC(=O)c1cc([N+](=O)[O-])c(Sc2c(Cl)cncc2Cl)s1)c1ccccc1` (stereo not drawn) [Example 200, 5-((3,5-dichloropyridin-4-yl)thio)-N-(3-(dimethylamino)-1-phenylpropyl)-4-nitrothiophene-2-carboxamide], the EC50 is no more than 1000 nM.

For the compound `O=C(CNC(=O)c1cc([N+](=O)[O-])c(Sc2c(Cl)cncc2Cl)s1)NC1CCCCC1` [Example 220], the EC50 lay in the range of 1000 to 10000 nM.

Regarding `CCOC(=O)c1cc([N+](=O)[O-])c(Sc2cccc(Cl)c2Cl)s1` [Example 41, Ethyl 5-(2,3-dichlorophenylsulfanyl)-4-nitrothiophene-2-carboxylate], the EC50 is greater than 10000 nM.

With `CCn1cnc(NC(=O)c2cc([N+](=O)[O-])c(Sc3c(Cl)cncc3Cl)s2)n1` [Example 186, 5-((3,5-dichloropyridin-4-yl)thio)-N-(1-ethyl-1H-1,2,4-triazol-3-yl)-4-nitrothiophene-2-carboxamide], the EC50 was no more than 1000 nM.

Turning to `CN(C)C1CCN(CCCNC(=O)c2cc([N+](=O)[O-])c(Sc3c(Cl)cncc3Cl)s2)CC1` [Example 224, 5-((3,5-dichloropyridin-4-yl)thio)-N-(3-(4-(dimethylamino)piperidin-1-yl)propyl)-4-nitrothiophene-2-carboxamide], the EC50 fell in the range of 1000 to 10000 nM.

On to `COc1cncc(CNC(=O)c2cc([N+](=O)[O-])c(Sc3c(Cl)cncc3Cl)s2)c1` [Example 239, 5-((3,5-dichloropyridin-4-yl)thio)-N-((5-methoxypyridin-3-yl)methyl)-4-nitrothiophene-2-carboxamide], for which the EC50 is no more than 1000 nM.

Consider `O=C(Nc1ccc(F)cc1)c1cc([N+](=O)[O-])c(Sc2c(Cl)cncc2Cl)s1` [Example 136, 5-((3,5-dichloropyridin-4-yl)thio)-N-(4-fluorophenyl)-4-nitrothiophene-2-carboxamide], for which the EC50 is no more than 1000 nM.

For the compound `O=C(NCCc1cccs1)c1cc([N+](=O)[O-])c(Sc2c(Cl)cncc2Cl)s1` [Example 55, 5-((3,5-dichloropyridin-4-yl)thio)-4-nitro-N-(2-(thiophen-2-yl)ethyl)thiophene-2-carboxamide], the EC50 was 1000 to 10000 nM.

Take `CC(=O)c1cc([N+](=O)[O-])c([S+]([O-])c2ccc(Cl)cc2Cl)s1` (stereo not drawn) [Example 34, 1-[5-(2,4-dichlorophenyl)sulfinyl-4-nitro-2-thienyl]ethanone]: the EC50 was greater than 10000 nM.

As for `CC(C)N1CCC(NC(=O)c2cc([N+](=O)[O-])c(Oc3c(Cl)cncc3Cl)s2)CC1` [Example 260, 5-((3,5-dichloropyridin-4-yl)oxy)-N-(1-isopropylpiperidin-4-yl)-4-nitrothiophene-2-carboxamide], the EC50 is greater than 10000 nM.

Take `O=C(NCCCN1CCC(CO)CC1)c1cc([N+](=O)[O-])c(Sc2c(Cl)cncc2Cl)s1` [Example 227, 5-((3,5-dichloropyridin-4-yl)thio)-N-(3-(4-(hydroxymethyl)piperidin-1-yl)propyl)-4-nitrothiophene-2-carboxamide]: the EC50 was no more than 1000 nM.

On to `CN1CCC(NC(=O)c2sc(Sc3c(Cl)cncc3Cl)c(C#N)c2-c2ccccc2)CC1` [Example 247, 4-cyano-5-((3,5-dichloropyridin-4-yl)thio)-N-(1-methylpiperidin-4-yl)-3-phenylthiophene-2-carboxamide], for which the EC50 lay within 1000 to 10000 nM.

For `O=C(NCc1ccc(O)cc1)c1cc([N+](=O)[O-])c(Sc2c(Cl)cncc2Cl)s1` [Example 165, 5-((3,5-dichloropyridin-4-yl)thio)-N-(4-hydroxybenzyl)-4-nitrothiophene-2-carboxamide], the EC50 is no more than 1000 nM.

As to `COc1ccc(NC(=O)c2cc([N+](=O)[O-])c(Sc3c(Cl)cncc3Cl)s2)cc1OC` [Example 170, 5-((3,5-dichloropyridin-4-yl)thio)-4-nitro-N-(3,4-dimethoxyphenyl)thiophene-2-carboxamide], the concentration giving a half-maximal response (EC50) is no more than 1000 nM.

As to `CSCCNC(=O)c1cc([N+](=O)[O-])c(Sc2c(Cl)cncc2Cl)s1` [Example 50, 5-((3,5-dichloropyridin-4-yl)thio)-N-(2-(methylthio)ethyl)-4-nitrothiophene-2-carboxamide], the EC50 lay in the range of 1000 to 10000 nM.

For `O=C(NC1CCCCC1)c1cc([N+](=O)[O-])c(Sc2c(Cl)cncc2Cl)s1` [Example 154, N-cyclohexyl-5-((3,5-dichloropyridin-4-yl)thio)-4-nitrothiophene-2-carboxamide], the EC50 is no more than 1000 nM.

As for `CC(=O)c1cc([N+](=O)[O-])c(Sc2ccccc2Cl)s1` [Example 1, 1-[5-(2-Chlorophenylsulfanyl)-4-nitro-2-thienyl]ethanone], the EC50 is greater than 10000 nM.

For the compound `CN1CCC(NC(=O)CNC(=O)c2cc([N+](=O)[O-])c(Sc3c(Cl)cncc3Cl)s2)CC1` [Example 222, 5-((3,5-dichloropyridin-4-yl)thio)-N-(2-((1-methylpiperidin-4-yl)amino)-2-oxoethyl)-4-nitrothiophene-2-carboxamide], the EC50 is no more than 1000 nM.

Turning to `O=C(NC12CC3CC(CC(O)(C3)C1)C2)c1cc([N+](=O)[O-])c(Sc2c(Cl)cncc2Cl)s1` [Example 176, 5-((3,5-dichloropyridin-4-yl)thio)-N-((1r,3s,5R,7S)-3-hydroxyadamantan-1-yl)-4-nitrothiophene-2-carboxamide], the EC50 was no more than 1000 nM.

The EC50 is the midpoint of the concentration-response curve.
